Literature values, collected in patent publication US20230158004A1, “ENTERIC-COATED PREPARATION COMPRISING PIRFENIDONE HAVING IMPROVED SAFETY AND STABILITY, AND METHOD FOR PREPARING SAME” (YUNGJIN PHARM. CO., LTD., priority 2020, published 2023).

Conditions: healthy adults and patients with idiopathic pulmonary fibrosis, total 1,650 people

- anorexia: 11.4%
- diarrhea: 18.8%
- headache: 10.1%
- indigestion: 16.1%
- nausea: 32.4%
- photosensitivity: 9.3%
- rash: 26.2%
SMILES: Cc1ccc(=O)n(-c2ccccc2)c1 [pirfenidone, 5-methyl-1-phenyl-2-(1H)-pyridone]
